The values below come from patent publication US8263610B2, “Substituted imidazolyl-5,6-dihydrobenzo[N]isoquinoline compounds” (ArQule, Inc., priority 2008, dated 2012).

One series deals with NCI-H1299 cells. The experiment in a line: MTS assay, inhibition of cell growth. In kind it is cell-based. Particulars: Homo sapiens, compound at 10 μM, 72 hours. Here is the method: (§1) MDA-MB-231, DLD-1, Kato III NCI-H1299, PACA-2 cells, were maintained at 37° C., 5% CO2 in DMEM media supplemented with 10% fetal bovine serum, penicillin/streptomycin and fungizone (Invitrogen). Cells were seeded into 96-well tissue culture plates at 3000 per well and cultured at 37° C. for 18 hours. Test compounds were dissolved and diluted to 300× in DMSO then further diluted 1:40 in DMEM before addition to cells (1:7.5 dilution). Cells were incubated with test compounds for 72 hours followed by incubation with tetrazolium compound (3-(4,5-dimethylthiazol-2-yl)-5-(3-carboxymethoxyphenyl)-2-(4-sulfophenyl)-2H-tetrazolium, inner salt; MTS) and the electron coupling reagent, phenazine methosulfate (PMS) for 4 hours. […] The ability of compounds to inhibit cell growth in this assay is correlated with the reduction of dehydrogenase enzyme activity found in metabolically active cells. The measurement of the absorbance of the formazan was assessed using an ENVISION™ (Perkin Elmer) microplate reader at 492 nm.
(In general: Formazan colour is commonly taken as a measure of viable cells.)

A further series relates to MDA-MB-231 cells. The experiment in a line: MTS assay, inhibition of cell growth. In kind it is cell-based. The conditions noted are these: Homo sapiens, compound at 10 μM, 72 hours. The protocol:
as §1

In a further series the test system is DLD-1 cells. The experiment in a line: MTS assay, inhibition of cell growth. In kind it is cell-based. The conditions noted are these: Homo sapiens, compound at 10 μM, 72 hours. The protocol:
as §1

Another series deals with Kato III cells. The experiment in a line: MTS assay, inhibition of cell growth. Particulars: Homo sapiens, compound at 10 μM, 72 hours. In kind it is cell-based. Here is the method:
as §1

The test system of the next series is PACA-2 cells. The experiment in a line: MTS assay, inhibition of cell growth. In kind it is cell-based. The conditions noted are these: compound at 10 μM, 72 hours. The protocol: as §1

For the molecule `O=S(=O)(Cc1noc2ccccc12)NC1CCc2c(cnc3[nH]ncc23)C1` (centres unmarked) [1-(1,2-benzisoxazol-3-yl)-N-(6,7,8,9-tetrahydro-3H-pyrazolo[3,4-c]isoquinolin-7-yl)methanesulfonamide], the inhibition at 10 µM in the series with NCI-H1299 cells is 25 to 49%; in the series on MDA-MB-231 cells it was 25 to 49%; in the series with DLD-1 cells it was 50 to 74%; with Kato III cells it was 75 to 100%; with PACA-2 cells it was 75 to 100%.

In the case of `O=C(Nc1cccc2ccccc12)NC1CCc2c(cnc3[nH]ncc23)C1` (centres unmarked) [1-(1-naphthyl)-3-(6,7,8,9-tetrahydro-3H-pyrazolo[3,4-c]isoquinolin-7-yl)urea], the inhibition at 10 µM in the series with NCI-H1299 cells is 25 to 49%; in the series on MDA-MB-231 cells, 50 to 74%; in the series with DLD-1 cells, 75 to 100%; in the series with Kato III cells it was 75 to 100%; in the series with PACA-2 cells, 25 to 49%.

In the case of `N[C@H](C(=O)N1CCc2c(cnc3[nH]ncc23)C1)c1ccccc1` [(1S)-2-oxo-1-phenyl-2-(3,6,8,9-tetrahydro-7H-pyrazolo[3,4-c][2,7]naphthyridin-7-yl)ethanamine], the figures for the inhibition at 10 µM with MDA-MB-231 cells, in the series with DLD-1 cells and in the series on PACA-2 cells were 50 to 74%, < 24% and 50 to 74%, respectively.

Take `Cc1nc(-c2cccc(NC(=O)N3CCc4c(cnc5[nH]ncc45)C3)c2)cs1` [Example 401, N-(3-(2-methylthiazol-4-yl)phenyl)-8,9-dihydro-3H-pyrazolo[3,4-c][2,7]naphthyridine-7(6H)-carboxamide]: the melting point was > 155 °C.

`Cc1nc(-c2cccc(NC(=O)N3CCc4c(cnc5[nH]nc(Br)c45)C3)c2)cs1` [Example 402, 1-bromo-N-(3-(2-methylthiazol-4-yl)phenyl)-8,9-dihydro-3H-pyrazolo[3,4-c][2,7]naphthyridine-7(6H)-carboxamide] had a melting point of 258 to 261 °C.

Take `Cc1cncc(Oc2cccc(NC(=O)N3CCc4c(cnc5[nH]nc(Br)c45)C3)c2)n1` [Example 403, 1-bromo-N-{3-[(6-methylpyrazin-2-yl)oxy]phenyl}-3,6,8,9-tetrahydro-7H-pyrazolo[3,4-c][2,7]naphthyridine-7-carboxamide]: the melting point lay within 221 to 223 °C.

For `Cc1nc(-c2cccc(NC(=O)N3CCc4c(cnc5[nH]nc(Br)c45)C3)c2)no1` [Example 404, 1-bromo-N-[3-(5-methyl-1,2,4-oxadiazol-3-yl)phenyl]-3,6,8,9-tetrahydro-7H-pyrazolo[3,4-c][2,7]naphthyridine-7-carboxamide], the melting point is > 152 °C.

Consider `Cc1nc(-c2cccc(NC(=O)N3CCc4c(cnc5[nH]ncc45)C3)c2)no1` [Example 406, N-(3-(5-methyl-1,2,4-oxadiazol-3-yl)phenyl)-8,9-dihydro-3H-pyrazolo[3,4-c][2,7]naphthyridine-7(6H)-carboxamide], for which the melting point is > 140 °C.

With `O=C(Nc1ccccc1)N1CCc2c(cnc3[nH]nc(-c4ccccc4)c23)C1` [Example 407, N,1-diphenyl-8,9-dihydro-3H-pyrazolo[3,4-c][2,7]naphthyridine-7(6H)-carboxamide], the melting point fell in the range of 150 to 170 °C.

For `O=C(Nc1cccc(Cc2ccccc2)c1)N1CCc2c(cnc3[nH]ncc23)C1` [Example 408, N-(3-benzylphenyl)-8,9-dihydro-3H-pyrazolo[3,4-c][2,7]naphthyridine-7(6H)-carboxamide], the melting point lay within 175 to 178 °C.

Consider `COc1ccc(-c2ccccc2)cc1NC(=O)N1CCc2c(cnc3[nH]ncc23)C1` [Example 409, N-(4-methoxybiphenyl-3-yl)-8,9-dihydro-3H-pyrazolo[3,4-c][2,7]naphthyridine-7(6H)-carboxamide], for which the melting point was 148 to 151 °C.

In turn, `O=C(c1ccccc1)N1CCc2c(cnc3[nH]ncc23)C1` [Example 427, (8,9-dihydro-3H-pyrazolo[3,4-c][2,7]naphthyridin-7(6H)-yl)(phenyl)methanone] had a melting point of 198 to 200 °C.

Regarding `O=C(NC1CCc2c(cnc3[nH]ncc23)C1)c1ccccc1` (centres unmarked) [Example 430, N-(6,7,8,9-tetrahydro-3H-pyrazolo[3,4-c]isoquinolin-7-yl)benzamide], the melting point was > 300 °C.

As to `O=C(c1ccccc1)N1CCc2cnc3[nH]ncc3c2-c2ccccc21` [Example 431, 8-(phenylcarbonyl)-3,6,7,8-tetrahydropyrazolo[4′,3′:5,6]pyrido[3,4-d][1]benzazepine], the melting point is > 150 °C.

Molecule `O=C(O)C(c1ccccc1)N1CCc2c(cnc3[nH]ncc23)C1` (centres unmarked) [Example 433, 2-(8,9-dihydro-3H-pyrazolo[3,4-c][2,7]naphthyridin-7(6H)-yl)-2-phenylacetic acid] showed a melting point of 237 to 240 °C.

In the case of `COc1ccc(Cn2ncc3c4c(cnc32)CN(c2ncnc3[nH]nc(C(=O)c5ccccc5)c23)CC4)cc1` [Example 434, (4-(3-(4-methoxybenzyl)-8,9-dihydro-3H-pyrazolo[3,4-c][2,7]naphthyridin-7(6H)-yl)-1H-pyrazolo[3,4-d]pyrimidin-3-yl)(phenyl)methanone], the melting point was > 145 °C.

Molecule `O=C(c1ccccc1)c1c[nH]c2ncnc(N3CCc4c(cnc5[nH]nc(Br)c45)C3)c12` [Example 436] came in with a melting point of 300 to 302 °C.

As for `COc1ccc(Cn2ncc3c4c(cnc32)CN(C(=N)N)CC4)cc1` [Example 474, 3-(4-methoxybenzyl)-8,9-dihydro-3H-pyrazolo[3,4-c][2,7]naphthyridine-7(6H)-carboximidamide], the melting point lay within 255 to 256 °C.

In the case of `O=C(Cc1ccccc1)N1CCc2c(cnc3[nH]ncc23)C1` [Example 476, 1-(8,9-dihydro-3H-pyrazolo[3,4-c][2,7]naphthyridin-7(6H)-yl)-2-phenylethanone], the melting point fell in the range of 164 to 166 °C.

As to `O=C(NC[C@@H]1CCCO1)c1cccc(NC(=O)N2CCc3c(cnc4[nH]ncc34)C2)c1` [N-(3-{[(2S)-tetrahydrofuran-2-ylmethyl]carbamoyl}phenyl)-3,6,8,9-tetrahydro-7H-pyrazolo[3,4-c][2,7]naphthyridine-7-carboxamide], the inhibition at 10 µM with MDA-MB-231 cells, in the series with DLD-1 cells, in the series on Kato III cells and in the series on PACA-2 cells was 75 to 100% each time.

On to `CC(=O)Nc1cccc(-c2n[nH]c3ncc4c(c23)CCNC4)c1` [N-[3-(6,7,8,9-tetrahydro-3H-pyrazolo[3,4-c][2,7]naphthyridin-1-yl)phenyl]acetamide], for which the inhibition at 10 µM was 25 to 49% in the series with MDA-MB-231 cells, 50 to 74% in the series on DLD-1 cells and 75 to 100% in the series on Kato III cells.

As to `c1ccc(CNC2CCc3c(cnc4[nH]ncc34)C2)cc1` (centres unmarked) [N-benzyl-6,7,8,9-tetrahydro-3H-pyrazolo[3,4-c]isoquinolin-7-amine], the inhibition at 10 µM with MDA-MB-231 cells, in the series on DLD-1 cells and with PACA-2 cells was < 24% each time.

As to `c1ccc(C2Cc3cnc4[nH]ncc4c3-c3ccccc32)cc1` (centres unmarked) [drawing 555, 7-phenyl-6,7-dihydro-3H-benzo[f]pyrazolo[3,4-c]isoquinoline], the inhibition at 10 µM in the series on MDA-MB-231 cells was < 24%; in the series on DLD-1 cells, 25 to 49%; in the series on Kato III cells it was 25 to 49%; in the series on PACA-2 cells, < 24%.

`Clc1ccc(C2Cc3cnc4[nH]ncc4c3-c3ccccc32)c(Cl)c1` (centres unmarked) [drawing 557, 7-(2,4-dichlorophenyl)-6,7-dihydro-3H-benzo[f]pyrazolo[3,4-c]isoquinoline]: the inhibition at 10 µM in the series on NCI-H1299 cells was 25 to 49%; with DLD-1 cells, 50 to 74%; with Kato III cells it was 50 to 74%; in the series with PACA-2 cells it was < 24%.

As for `O=C(Nc1ccccc1)NC1CCc2c(cnc3[nH]ncc23)C1` (centres unmarked) [drawing 560, 1-phenyl-3-(6,7,8,9-tetrahydro-3H-pyrazolo[3,4-c]isoquinolin-7-yl)urea], the inhibition at 10 µM with DLD-1 cells and in the series with PACA-2 cells was < 24% throughout.

On to `Cc1cc(C)c2c(c1)-c1c(cnc3[nH]ncc13)CC2` [drawing 561, 8,10-dimethyl-6,7-dihydro-3H-benzo[f]pyrazolo[3,4-c]isoquinoline], for which the inhibition at 10 µM in the series on MDA-MB-231 cells is 25 to 49%; in the series on DLD-1 cells, 75 to 100%; with Kato III cells, 25 to 49%; with PACA-2 cells it was < 24%.

As for `COc1ccc2c(c1)-c1c(cnc3[nH]ncc13)CC2` [drawing 562, 10-methoxy-6,7-dihydro-3H-benzo[f]pyrazolo[3,4-c]isoquinoline], the inhibition at 10 µM in the series on DLD-1 cells was < 24%; in the series with Kato III cells, 25 to 49%; in the series with PACA-2 cells, < 24%.

Consider `Cc1nc(-c2cccc(NC(=O)N3CCc4c(cnc5[nH]nc(Br)c45)C3)c2)no1` [drawing 581, 1-bromo-N-[3-(5-methyl-1,2,4-oxadiazol-3-yl)phenyl]-3,6,8,9-tetrahydro-7H-pyrazolo[3,4-c][2,7]naphthyridine-7-carboxamide], for which the inhibition at 10 µM in the series on Kato III cells and in the series on PACA-2 cells was < 24% throughout.

For `O=C(Nc1ccccc1)C1CCc2c(cnc3[nH]ncc23)C1` (centres unmarked) [drawing 584, N-phenyl-6,7,8,9-tetrahydro-3H-pyrazolo[3,4-c]isoquinoline-7-carboxamide], the inhibition at 10 µM with MDA-MB-231 cells is < 24%; in the series on DLD-1 cells, 50 to 74%; in the series with Kato III cells, 75 to 100%; in the series with PACA-2 cells it was < 24%.

One may read the inhibition as the percentage by which the read-out fell short of the control. The low end stands for a response near the control, the high end for a response far below the control. As a reminder, the melting point is the temperature of the solid-liquid transition.
